Each molecule was assayed on OF1 mice (assay: Maximal electroshock test (MES Test)). Settings: Mus musculus, po; 50 mg/kg, p.o., pre-treatment time −1 h; read-out: %-Protection.
Type: in vivo
Procedure, shortened: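 Readout: fraction of five OF1 mice protected, meaning seizure duration 3 s or less, after a 50 Hz, 18 mA, 0.2 s temporal-electrode shock. Dosing was oral, usually 50 mg/kg, one hour beforehand; ED50 values were derived and post-shock blood taken for exposure.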
In the case of `CCCC(=O)N(n1c(=O)[nH]c2cc(C(F)(F)F)c(-n3ccnc3C)cc2c1=O)S(C)(=O)=O` [Example 7.02, N-Butyryl-N-[6-(2-methyl-imidazol-1-yl)-2,4-dioxo-7-trifluoromethyl-1,4-dihydro-2H-quinazolin-3-yl]-methanesulfonamide], the responders at 50 mg/kg is reported as 20%. Work on `CC(C)c1cc2[nH]c(=O)n(N(C(=O)CCCOCc3ccccc3)S(C)(=O)=O)c(=O)c2cc1-c1ccnn1C` [Example 3.30, N-(4-Benzyloxy-butyryl)-N-[7-isopropyl-6-(2-methyl-2H-pyrazol-3-yl)-2,4-dioxo-1,4-dihydro-2H-quinazolin-3-yl]-methanesulfonamide] yielded a responders at 50 mg/kg of 100%. `CCC(=O)N(n1c(=O)[nH]c2cc(C(F)(F)F)c(-n3cccc3)cc2c1=O)S(C)(=O)=O` [Example 8.01, N-(2,4-Dioxo-6-pyrrol-1-yl-7-trifluoromethyl-1,4-dihydro-2H-quinazolin-3-yl)-N-propionyl-methanesulfonamide] was tested, and the responders at 50 mg/kg was 20%. `CCOC(=O)CCCC(=O)N(n1c(=O)[nH]c2cc(C(F)(F)F)c(-c3ccnn3C(C)C)cc2c1=O)S(C)(=O)=O` [Example 5.11, 5-{[6-(2-Isopropyl-2H-pyrazol-3-yl)-2,4-dioxo-7-trifluoromethyl-1,4-dihydro-2H-quinazolin-3-yl]-methanesulfonyl-amino}-5-oxo-pentanoic acid ethyl ester] showed a responders at 50 mg/kg of 40%. Work on `COCCOC(=O)N(n1c(=O)[nH]c2cc(C(F)(F)F)c([C@H]3CCCO3)cc2c1=O)S(C)(=O)=O` [Example 10.07, Methanesulfonyl-N—((R)-2,4-dioxo-6-tetrahydro-furan-2-yl-7-trifluoromethyl-1,4-dihydro-2H-quinazolin-3-yl)-carbamic acid 2-methoxy-ethyl ester] yielded a responders at 50 mg/kg of 60%. `CCCCOC(=O)N(n1c(=O)[nH]c2cc(C(F)(F)F)c(C(CC)OC)cc2c1=O)S(C)(=O)=O` (stereo not drawn) [Example 11.11, Methanesulfonyl-[6-(1-methoxy-propyl)-2,4-dioxo-7-trifluoromethyl-1,4-dihydro-2H-quinazolin-3-yl]-carbamic acid butyl ester] gave a responders at 50 mg/kg of 60%. `COC(=O)N(n1c(=O)c2cc(-c3ccnn3C)c(C(C)C)cc2n(C(=O)OC)c1=O)S(C)(=O)=O` [Example 3.32, 7-Isopropyl-3-(methoxycarbonyl-methanesulfonyl-amino)-6-(2-methyl-2H-pyrazol-3-yl)-2,4-dioxo-3,4-dihydro-2H-quinazoline-1-carboxylic acid methyl ester] showed a responders at 50 mg/kg of 80%. Molecule `CC(=O)OCC(=O)N(n1c(=O)[nH]c2cc(C(F)(F)F)c(-n3cccc3)cc2c1=O)S(C)(=O)=O` [Example 8.03, Acetic acid 2-[(2,4-dioxo-6-pyrrol-1-yl-7-trifluoromethyl-1,4-dihydro-2H-quinazolin-3-yl)-methanesulfonyl-amino]-2-oxo-ethyl ester] has a responders at 50 mg/kg of 40%. Work on `CCCCCC(=O)N(n1c(=O)[nH]c2cc(C(F)(F)F)c([C@H]3CCCO3)cc2c1=O)S(C)(=O)=O` [Example 10.09, N—((R)-2,4-Dioxo-6-tetrahydro-furan-2-yl-7-trifluoromethyl-1,4-dihydro-2H-quinazolin-3-yl)-N-hexanoyl-methanesulfonamide] yielded a responders at 50 mg/kg of 60%. For `CCCCCC(=O)N(n1c(=O)[nH]c2cc(C(F)(F)F)c(-c3ccnn3C(C)C)cc2c1=O)S(C)(=O)=O` [Example 5.04, N-Hexanoyl-N-[6-(2-isopropyl-2H-pyrazol-3-yl)-2,4-dioxo-7-trifluoromethyl-1,4-dihydro-2H-quinazolin-3-yl]-methanesulfonamide], the responders at 50 mg/kg was 20%. For `CCCCOC(=O)N(n1c(=O)[nH]c2cc(C(F)(F)F)c(-c3ccnn3C(C)C)cc2c1=O)S(C)(=O)=O` [Example 5.08, [6-(2-Isopropyl-2H-pyrazol-3-yl)-2,4-dioxo-7-trifluoromethyl-1,4-dihydro-2H-quinazolin-3-yl]-methanesulfonyl-carbamic acid butyl ester], the responders at 50 mg/kg was 100%. `CCOC(=O)N(n1c(=O)[nH]c2cc(CC)c(-c3ccnn3C)cc2c1=O)S(C)(=O)=O` [Example 2.08, Methanesulfonyl-[7-ethyl-6-(2-methyl-2H-pyrazol-3-yl)-2,4-dioxo-1,4-dihydro-2H-quinazolin-3-yl]-carbamic acid ethyl ester] showed a responders at 50 mg/kg of 80%. In the case of `CCn1nccc1-c1cc2c(=O)n(N(C(=O)C(C)(C)C)S(C)(=O)=O)c(=O)[nH]c2cc1C(F)(F)F` [Example 15.04, N-(2,2-Dimethyl-propionyl)-N-[6-(2-ethyl-2H-pyrazol-3-yl)-2,4-dioxo-7-trifluoromethyl-1,4-dihydro-2H-quinazolin-3-yl]-methanesulfonamide], the responders at 50 mg/kg is reported as 20%. In the case of `CCc1cc2c(cc1-c1ccnn1C)c(=O)n(N(C(C)=O)S(C)(=O)=O)c(=O)n2C(C)=O` [Example 2.14, N-Acetyl-N-[1-acetyl-7-ethyl-6-(2-methyl-2H-pyrazol-3-yl)-2,4-dioxo-1,4-dihydro-2H-quinazolin-3-yl]-methanesulfonamide], the responders at 50 mg/kg is reported as 100%. `CCCOC(=O)N(n1c(=O)c2cc(-c3ccnn3C)c(C(C)C)cc2n(C(=O)OCCC)c1=O)S(C)(=O)=O` [Example 3.34, 7-Isopropyl-3-(methanesulfonyl-propoxycarbonyl-amino)-6-(2-methyl-2H-pyrazol-3-yl)-2,4-dioxo-3,4-dihydro-2H-quinazoline-1-carboxylic acid propyl ester] gave a responders at 50 mg/kg of 80%. `CC(C)C(=O)N(n1c(=O)[nH]c2cc(C(F)(F)F)c(-c3ccnn3C(C)C)cc2c1=O)S(C)(=O)=O` [Example 5.05, N-Isobutyryl-N-[6-(2-isopropyl-2H-pyrazol-3-yl)-2,4-dioxo-7-trifluoromethyl-1,4-dihydro-2H-quinazolin-3-yl]-methanesulfonamide] gave a responders at 50 mg/kg of 60%. In the case of `CCC(OC)c1cc2c(=O)n(N(C(=O)OCC(C)C)S(C)(=O)=O)c(=O)[nH]c2cc1C(F)(F)F` (stereo not drawn) [Example 11.10, Methanesulfonyl-[6-(1-methoxy-propyl)-2,4-dioxo-7-trifluoromethyl-1,4-dihydro-2H-quinazolin-3-yl]-carbamic acid isobutyl ester], the responders at 50 mg/kg is reported as 100%. `CCCC(=O)N(n1c(=O)[nH]c2cc(C(F)(F)F)c(-n3cccc3)cc2c1=O)S(C)(=O)=O` [Example 8.02, N-Butyryl-N-(2,4-dioxo-6-pyrrol-1-yl-7-trifluoromethyl-1,4-dihydro-2H-quinazolin-3-yl)-methanesulfonamide] showed a responders at 50 mg/kg of 20%. With `CC(C)COC(=O)N(n1c(=O)[nH]c2cc(C(F)(F)F)c([C@H]3CCCO3)cc2c1=O)S(C)(=O)=O` [Example 10.08, Methanesulfonyl-N—((R)-2,4-dioxo-6-tetrahydro-furan-2-yl-7-trifluoromethyl-1,4-dihydro-2H-quinazolin-3-yl)-carbamic acid isobutyl ester] the responders at 50 mg/kg was 20%. In the case of `CCCCOC(=O)N(n1c(=O)[nH]c2cc(C(F)(F)F)c([C@H]3CCCO3)cc2c1=O)S(C)(=O)=O` [Example 10.06, Methanesulfonyl-N—((R)-2,4-dioxo-6-tetrahydro-furan-2-yl-7-trifluoromethyl-1,4-dihydro-2H-quinazolin-3-yl)-carbamic acid butyl ester], the responders at 50 mg/kg is reported as 40%.

Same assay, conditions: Mus musculus, po; 50 mg/kg, p.o., pre-treatment time −2 h (footnote a); read-out: %-Protection
`CCCCCC(=O)N(n1c(=O)[nH]c2cc(C(F)(F)F)c(-n3cnnc3)cc2c1=O)S(C)(=O)=O` [Example 9.02, N-(2,4-Dioxo-6-[1,2,4]triazol-4-yl-7-trifluoromethyl-1,4-dihydro-2H-quinazolin-3-yl)-N-hexanoyl-methanesulfonamide] was tested, and the responders at 50 mg/kg was 20%.

Same assay, conditions: Mus musculus, po; Dose: 15 mg/kg, p.o. (footnote c), pre-treatment time −1 h; read-out: %-Protection
In the case of `CCOC(=O)CCCC(=O)N(n1c(=O)[nH]c2cc(C(C)C)c(-c3ccnn3C)cc2c1=O)S(C)(=O)=O` [Example 3.08, 5-{[7-Isopropyl-6-(2-methyl-2H-pyrazol-3-yl)-2,4-dioxo-1,4-dihydro-2H-quinazolin-3-yl]-methanesulfonyl-amino}-5-oxo-pentanoic acid ethyl ester], the responders at 15 mg/kg is reported as 100%.

Same assay, conditions: Mus musculus, po; Dose: 15 mg/kg, p.o., pre-treatment time −2 h (footnotes a,c); read-out: %-Protection
Work on `CC(=O)OC(C)(C)C(=O)N(n1c(=O)c2cc(-c3ccnn3C)c(C(C)C)cc2n(C(=O)C(C)(C)OC(C)=O)c1=O)S(C)(=O)=O` [Example 3.11, Acetic acid 2-[3-[(2-acetoxy-2-methyl-propionyl)-methanesulfonyl-amino]-7-isopropyl-6-(2-methyl-2H-pyrazol-3-yl)-2,4-dioxo-3,4-dihydro-2H-quinazolin-1-yl]-1,1-dimethyl-2-oxo-ethyl ester] yielded a responders at 15 mg/kg of 40%.

Same assay, conditions: Mus musculus, po; Dose: 25 mg/kg, p.o. (footnote b), pre-treatment time −1 h; read-out: %-Protection
For `CCCC(=O)N(n1c(=O)[nH]c2cc(CC)c(-c3ccnn3C)cc2c1=O)S(C)(=O)=O` [Example 2.02, N-Butyryl-N-[7-ethyl-6-(2-methyl-2H-pyrazol-3-yl)-2,4-dioxo-1,4-dihydro-2H-quinazolin-3-yl]-methanesulfonamide], the responders at 25 mg/kg was 100%.

Same assay, conditions: Mus musculus; dose of up to 50 mg/kg, p.o., 1 hour prior to induction of convulsions; read-out: %-Protection
`CCCCCCOC(=O)N(n1c(=O)[nH]c2cc(CC)c(-c3ccnn3C)cc2c1=O)S(C)(=O)=O` [Methanesulfonyl-[7-ethyl-6-(2-methyl-2H-pyrazol-3-yl)-2,4-dioxo-1,4-dihydro-2H-quinazolin-3-yl]carbamic acid hexyl ester] showed a responders at 50 mg/kg of 0%. Work on `CCn1nccc1-c1cc2c(=O)n(N(C(=O)CCSC)S(C)(=O)=O)c(=O)[nH]c2cc1C(F)(F)F` [N-[6-(2-Ethyl-2H-pyrazol-3-yl)-2,4-dioxo-7-trifluoromethyl-1,4-dihydro-2H-quinazolin-3-yl]-N-(3-methylsulfanyl-propionyl)-methanesulfonamide] yielded a responders at 50 mg/kg of 0%. With `CC(C)COC(=O)N(n1c(=O)[nH]c2cc(C(F)F)c(-c3ccnn3C(C)C)cc2c1=O)S(C)(=O)=O` [[7-Difluoromethyl-6-(2-isopropyl-2H-pyrazol-3-yl)-2,4-dioxo-1,4-dihydro-2H-quinazolin-3-yl]-methanesulfonyl-carbamic acid isobutyl ester] the responders at 50 mg/kg was 0%.

From patent US20130053381A1, “2,4-DIOXO-1,4-DIHYDRO-2H-QUINAZOLIN-3-YL-SULFONAMIDE DERIVATIVES” (NOVARTIS AG, priority 2010, published 2013)
